Experimental findings from ChEMBL document CHEMBL2203078, “Identification of amides as carboxylic Acid surrogates for quinolizidinone-based m1 positive allosteric modulators” (ACS Med Chem Lett, 2012) are described below.

The source made the active and inactive calls. The calls are words filed in the database; no cut-off is given here.

Assay type in all cases: functional, cell-based
For experiment [1], the target named is Muscarinic acetylcholine receptor M3 (Homo sapiens) (UniProt P20309). Description: Activity at muscarinic M3 receptor expressing in CHONFAT cells assessed as potentiation of acetylcholine-induced calcium mobilization preincubated for 4 mins and measured 4 mins after acetylcholine stimulation by FLIPR assay. In general terms: A change in cytosolic calcium serves as a functional read-out for many receptors and channels.

Experiment [2] concerns the target T1, Muscarinic acetylcholine receptor M1 (Homo sapiens) (UniProt P11229).
T1 sequence (whole entry): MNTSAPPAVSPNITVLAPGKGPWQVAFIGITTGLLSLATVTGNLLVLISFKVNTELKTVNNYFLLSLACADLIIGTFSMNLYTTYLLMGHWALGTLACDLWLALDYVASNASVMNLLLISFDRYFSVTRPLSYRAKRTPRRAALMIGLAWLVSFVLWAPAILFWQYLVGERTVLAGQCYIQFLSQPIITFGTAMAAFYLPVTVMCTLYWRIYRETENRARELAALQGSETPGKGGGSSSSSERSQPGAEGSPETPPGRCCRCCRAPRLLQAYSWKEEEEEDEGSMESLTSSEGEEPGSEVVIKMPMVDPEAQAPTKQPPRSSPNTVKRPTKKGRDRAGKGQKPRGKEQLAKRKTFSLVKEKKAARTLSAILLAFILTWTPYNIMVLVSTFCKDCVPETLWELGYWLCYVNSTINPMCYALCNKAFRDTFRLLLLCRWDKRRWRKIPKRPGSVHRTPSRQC
Description: Positive allosteric modulation of human muscarinic M1 receptor expressing in CHONFAT cells assessed as potentiation of acetylcholine-induced calcium mobilization preincubated for 4 mins and measured 4 mins after acetylcholine stimulation by FLIPR assay.

The target of experiment [3] is T2, Muscarinic acetylcholine receptor M2 (Homo sapiens) (UniProt P08172).
T2 sequence (whole entry): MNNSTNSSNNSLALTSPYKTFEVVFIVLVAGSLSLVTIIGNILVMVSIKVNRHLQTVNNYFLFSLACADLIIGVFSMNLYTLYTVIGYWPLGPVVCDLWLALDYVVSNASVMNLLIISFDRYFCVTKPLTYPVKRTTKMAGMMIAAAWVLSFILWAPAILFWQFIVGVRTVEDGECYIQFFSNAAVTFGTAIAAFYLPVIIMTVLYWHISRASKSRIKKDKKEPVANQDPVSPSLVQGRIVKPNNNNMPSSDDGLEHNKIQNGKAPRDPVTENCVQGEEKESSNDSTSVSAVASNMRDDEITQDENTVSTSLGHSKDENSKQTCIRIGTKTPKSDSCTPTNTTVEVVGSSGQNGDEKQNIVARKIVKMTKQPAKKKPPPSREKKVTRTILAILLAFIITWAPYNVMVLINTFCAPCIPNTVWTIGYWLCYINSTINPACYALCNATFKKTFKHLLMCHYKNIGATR
Description: Activity at muscarinic M2 receptor expressing in CHONFAT cells assessed as potentiation of acetylcholine-induced calcium mobilization preincubated for 4 mins and measured 4 mins after acetylcholine stimulation by FLIPR assay.

In experiment [4] the target is T3, Muscarinic acetylcholine receptor M4 (Homo sapiens) (UniProt P08173).
T3 sequence (whole entry): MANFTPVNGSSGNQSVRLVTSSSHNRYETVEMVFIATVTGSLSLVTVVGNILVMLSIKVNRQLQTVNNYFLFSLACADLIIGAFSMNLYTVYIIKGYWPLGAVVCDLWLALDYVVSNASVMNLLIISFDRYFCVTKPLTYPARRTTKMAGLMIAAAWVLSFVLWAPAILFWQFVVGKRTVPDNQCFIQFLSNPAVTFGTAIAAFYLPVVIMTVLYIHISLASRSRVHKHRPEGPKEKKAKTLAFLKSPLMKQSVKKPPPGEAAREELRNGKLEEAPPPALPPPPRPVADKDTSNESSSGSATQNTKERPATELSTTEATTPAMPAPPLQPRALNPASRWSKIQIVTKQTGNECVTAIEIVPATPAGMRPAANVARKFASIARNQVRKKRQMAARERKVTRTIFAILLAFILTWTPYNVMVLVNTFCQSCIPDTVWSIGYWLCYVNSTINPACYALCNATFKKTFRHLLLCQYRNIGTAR
Description: Activity at muscarinic M4 receptor expressing in CHONFAT cells assessed as potentiation of acetylcholine-induced calcium mobilization preincubated for 4 mins and measured 4 mins after acetylcholine stimulation by FLIPR assay.

Muscarinic acetylcholine receptor M3 (Homo sapiens), sequence (P20309 whole entry, looked up): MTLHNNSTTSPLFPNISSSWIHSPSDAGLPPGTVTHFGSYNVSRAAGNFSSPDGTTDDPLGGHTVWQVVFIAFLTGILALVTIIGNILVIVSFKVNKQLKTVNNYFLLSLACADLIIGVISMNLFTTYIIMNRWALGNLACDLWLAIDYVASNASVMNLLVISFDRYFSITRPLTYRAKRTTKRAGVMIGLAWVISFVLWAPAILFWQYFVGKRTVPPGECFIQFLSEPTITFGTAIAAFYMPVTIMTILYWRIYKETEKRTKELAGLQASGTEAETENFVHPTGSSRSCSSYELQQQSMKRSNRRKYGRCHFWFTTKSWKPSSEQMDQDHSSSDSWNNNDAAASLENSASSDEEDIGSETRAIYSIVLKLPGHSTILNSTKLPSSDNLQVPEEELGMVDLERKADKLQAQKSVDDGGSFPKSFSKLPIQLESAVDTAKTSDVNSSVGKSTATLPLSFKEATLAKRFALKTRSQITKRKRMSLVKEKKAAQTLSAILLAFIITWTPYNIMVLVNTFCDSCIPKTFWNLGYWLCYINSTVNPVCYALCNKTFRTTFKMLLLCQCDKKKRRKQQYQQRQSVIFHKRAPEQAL

Consider `CNC(=O)c1cc(CN2CCC(C#N)(c3ccccn3)CC2)c2ccccn2c1=O`, for which the result in experiment [1], in experiment [3] and in experiment [4] was inactive. For the same compound, the IP in experiment [2] stood at 4300 nM.
For `N#CC1(c2ccccn2)CCN(Cc2cc(C(=O)N[C@@H]3CCCC[C@H]3O)c(=O)n3ccccc23)CC1`, the outcome in experiment [1], in experiment [3] and in experiment [4] was inactive. Further, the IP in experiment [2] came to 220 nM.
For `N#CC1(c2ccccn2)CCN(Cc2cc(C(=O)NC3CC3)c(=O)n3ccccc23)CC1`, the outcome in experiment [1], in experiment [3] and in experiment [4] was inactive. In addition, the IP in experiment [2] worked out at 2200 nM.
Take `CN(C(=O)c1cc(CN2CCC(C#N)(c3ccccn3)CC2)c2ccccn2c1=O)C1CCOCC1`: the result in experiment [1], in experiment [3] and in experiment [4] was inactive. In addition, in experiment [2], the IP was found to be 4400 nM.
For the compound `N#CC1(c2ccccn2)CCN(Cc2cc(C(=O)NC3CCCCCC3)c(=O)n3ccccc23)CC1`, the result in experiment [1], in experiment [3] and in experiment [4] was inactive. Further, in experiment [2], the IP was 304 nM.
Turning to `COc1ccc(Cn2cc(C(=O)Nc3ccccc3C)c(=O)c3ccccc32)cc1`, the outcome in experiment [1], in experiment [3] and in experiment [4] was inactive. The IP in experiment [2] was determined as 23000 nM.
Turning to `N#CC1(c2ccccn2)CCN(Cc2cc(C(=O)NC3CCSCC3)c(=O)n3ccccc23)CC1`, the outcome in experiment [1], in experiment [3] and in experiment [4] was inactive. Moreover, the IP in experiment [2] worked out at 344 nM.
As to `COc1ccc(Cn2cc(C(=O)NC3CCCCC3)c(=O)c3ccccc32)cc1`, the outcome in experiment [1], in experiment [3] and in experiment [4] was inactive. Besides, the IP in experiment [2] worked out at 14000 nM.
On to `CO[C@H]1CCCC[C@@H]1NC(=O)c1cc(CN2CCC(C#N)(c3ccccn3)CC2)c2ccccn2c1=O`, for which the result in experiment [1], in experiment [3] and in experiment [4] was inactive. Besides, the IP in experiment [2] was found to be 381 nM.
Take `N#CC1(c2ccccn2)CCN(Cc2cc(C(=O)NC3CCC3)c(=O)n3ccccc23)CC1`: the outcome in experiment [1], in experiment [3] and in experiment [4] was inactive. For the same compound, the IP in experiment [2] came out at 980 nM.
As for `Cc1cccc2c1N(C(=O)c1cc(CN3CCC(C#N)(c4ccccn4)CC3)c3ccccn3c1=O)CCC2`, the result in experiment [1], in experiment [3] and in experiment [4] was inactive. Moreover, the IP in experiment [2] came out at 4400 nM.
For `N#CC1(c2ccccn2)CCN(Cc2cc(C(=O)NC3CCCC3)c(=O)n3ccccc23)CC1`, the result in experiment [1], in experiment [3] and in experiment [4] was inactive. The IP in experiment [2] turned out to be 780 nM.
As for `C[C@@]1(O)CCCC[C@H]1NC(=O)c1cc(CN2CCC(C#N)(c3ccccn3)CC2)c2ccccn2c1=O`, the outcome in experiment [1], in experiment [3] and in experiment [4] was inactive. Also, the IP in experiment [2] is 93 nM.
`N#CC1(c2ccccn2)CCN(Cc2cc(C(=O)NC3CCCOC3)c(=O)n3ccccc23)CC1` (stereo not given): the outcome in experiment [1], in experiment [3] and in experiment [4] was inactive. The IP in experiment [2] was 2600 nM.
Consider `N#CC1(c2ccccn2)CCN(Cc2cc(C(=O)N3CCCC3)c(=O)n3ccccc23)CC1`, for which the outcome in experiment [1], in experiment [3] and in experiment [4] was inactive. The IP in experiment [2] is 23000 nM.
